Results as given in ChEMBL document CHEMBL1777670, “Novel 12-membered non-antibiotic macrolides from erythromycin A; EM900 series as novel leads for anti-inflammatory and/or immunomodulatory agents” (Bioorg Med Chem Lett, 2011).
In brackets after ≈: the same amount, converted by molar mass.

Legend:
THP-1 [1] = assay: Cytotoxicity against human THP1 cells using cell count reagent SF; format: cell-based
Staphylococcus aureus [2] = assay: Antimicrobial activity against Staphylococcus aureus 8325 (pEP2104) by CLSI method; format: functional
Micrococcus luteus [3] = assay: Antimicrobial activity against Micrococcus luteus ATCC 9341 by CLSI method; format: functional
Escherichia coli = assay: Antimicrobial activity against Escherichia coli NIHJ JC-2 by CLSI method; format: functional
[4] = system: Staphylococcus epidermidis; assay: Antimicrobial activity against Staphylococcus epidermidis […] by CLSI method; format: functional
Micrococcus luteus [5] = assay: Antimicrobial activity against Micrococcus luteus ATCC 21212 by CLSI method; format: functional
[6] = system: Acinetobacter calcoaceticus; assay: Antimicrobial activity against Acinetobacter calcoaceticus IFO2552 by CLSI method; format: functional
Serratia marcescens = assay: Antimicrobial activity against Serratia marcescens IFO12648 by CLSI method; format: functional
Staphylococcus aureus [7] = assay: Antimicrobial activity against Staphylococcus aureus FDA209P by CLSI method; format: functional
Klebsiella pneumoniae = assay: Antimicrobial activity against Klebsiella pneumoniae NCTN9632 by CLSI method; format: functional
THP-1 [8] = assay: Immunomodulatory activity in human THP1 cells assessed as differentiation of monocyte to macrophage after 4 days by MTT assay; format: functional; conditions: THP-1, 96 h, read-out: ED50 (the source's name)
Staphylococcus aureus [9] = assay: Antimicrobial activity against Staphylococcus aureus Smith by CLSI method; format: functional
Klebsiella aerogenes = assay: Antimicrobial activity against Enterobacter aerogenes NCTC10006 by CLSI method; format: functional

Molecule `CC[C@@H](O)[C@@](C)(O)[C@@H]1OC(=O)[C@H](C)[C@@H](O[C@H]2C[C@@](C)(OC)[C@@H](O)[C@H](C)O2)[C@H](C)[C@@H](O[C@@H]2O[C@H](C)C[C@H](N(C)C)[C@H]2O)[C@@]2(C)C[C@@H](C)[C@H](O2)[C@@H]1C` has an Activity (THP-1 [1]) of 100 µM, an MIC (Staphylococcus aureus [2]) of over 128 µg/mL and an MIC (Micrococcus luteus [3]) of 128 µg/mL (≈ 178 µM). The MIC (Escherichia coli) was over 128 µg/mL, the MIC [4] was over 128 µg/mL and the MIC (Micrococcus luteus [5]) was over 128 µg/mL. The MIC [6] was over 128 µg/mL, the MIC (Serratia marcescens) was over 128 µg/mL and the MIC (Staphylococcus aureus [7]) was over 128 µg/mL. For the same molecule, the MIC (Klebsiella pneumoniae) was over 128 µg/mL, the EC50 (THP-1 [8]) was 17.1 µM and the MIC (Staphylococcus aureus [9]) was over 128 µg/mL. For the same molecule, the MIC (Klebsiella aerogenes) was over 128 µg/mL.
In the case of `CO[C@]1(C)C[C@H](O[C@H]2[C@H](C)[C@@H](O[C@@H]3O[C@H](C)C[C@H](N(C)C)[C@H]3O)[C@@]3(C)C[C@@H](C)[C@H](O3)[C@H](C)[C@H](C(C)=O)OC(=O)[C@@H]2C)O[C@@H](C)[C@@H]1O`, the Activity (THP-1 [1]) is reported as 100 µM and the EC50 (THP-1 [8]) is reported as 12.3 µM.
For `CO[C@]1(C)C[C@H](O[C@H]2[C@H](C)[C@@H](O[C@@H]3O[C@H](C)C[C@H](N(C)C)[C@H]3O)[C@@]3(C)C[C@@H](C)[C@H](O3)[C@H](C)[C@H](/C(C)=N/O)OC(=O)[C@@H]2C)O[C@@H](C)[C@@H]1O`, the Activity (THP-1 [1]) was over 100 µM and the EC50 (THP-1 [8]) was 12.3 µM.
`CC[C@@H]1O[C@@]1(C)[C@@H]1OC(=O)[C@H](C)[C@@H](O[C@H]2C[C@@](C)(OC)[C@@H](O)[C@H](C)O2)[C@H](C)[C@@H](O[C@@H]2O[C@H](C)C[C@H](N(C)C)[C@H]2O)[C@@]2(C)C[C@@H](C)[C@H](O2)[C@@H]1C` gave an Activity (THP-1 [1]) of 100 µM and an EC50 (THP-1 [8]) of 10.2 µM.
`CC[C@@H](OC(C)=O)[C@@](C)(O)[C@@H]1OC(=O)[C@H](C)[C@@H](O[C@H]2C[C@@](C)(OC)[C@@H](O)[C@H](C)O2)[C@H](C)[C@@H](O[C@@H]2O[C@H](C)C[C@H](N(C)C)[C@H]2O)[C@@]2(C)C[C@@H](C)[C@H](O2)[C@@H]1C` gave an Activity (THP-1 [1]) of 100 µM and an EC50 (THP-1 [8]) of 7.7 µM.
Molecule `CC[C@@H](O)[C@@](C)(O)[C@@H]1OC(=O)[C@H](C)[C@@H](O[C@H]2C[C@@](C)(OC)[C@@H](O)[C@H](C)O2)[C@H](C)[C@@H](O[C@@H]2O[C@H](C)C[C@H](N(C)C)[C@H]2OC(C)=O)[C@@]2(C)C[C@@H](C)[C@H](O2)[C@@H]1C` has an Activity (THP-1 [1]) of 100 µM and an EC50 (THP-1 [8]) of 16.1 µM.
With `CC[C@@H](O)[C@@](C)(O)[C@@H]1OC(=O)[C@H](C)[C@@H](O)[C@H](C)[C@@H](O[C@@H]2O[C@H](C)C[C@H](N(C)C)[C@H]2OC(C)=O)[C@@]2(C)C[C@@H](C)[C@H](O2)[C@@H]1C` the Activity (THP-1 [1]) was over 100 µM and the EC50 (THP-1 [8]) was over 100 µM.
`CC[C@H]1OC(=O)O[C@@]1(C)[C@@H]1OC(=O)[C@H](C)[C@@H](O)[C@H](C)[C@@H](O[C@@H]2O[C@H](C)C[C@H](N(C)C)[C@H]2OC(C)=O)[C@@]2(C)C[C@@H](C)[C@H](O2)[C@@H]1C` was tested, and the Activity (THP-1 [1]) was over 100 µM and the EC50 (THP-1 [8]) was 55.7 µM.
For `CC[C@H]1OC(=O)O[C@@]1(C)[C@@H]1OC(=O)[C@H](C)C(=O)[C@H](C)[C@@H](O[C@@H]2O[C@H](C)C[C@H](N(C)C)[C@H]2OC(C)=O)[C@@]2(C)C[C@@H](C)[C@H](O2)[C@@H]1C`, the Activity (THP-1 [1]) was over 100 µM and the EC50 (THP-1 [8]) was 27.9 µM.
In the case of `CC[C@H]1OC(=O)O[C@@]1(C)[C@@H]1OC(=O)[C@H](C)C(=O)[C@H](C)[C@@H](O[C@@H]2O[C@H](C)C[C@H](N(C)C)[C@H]2O)[C@@]2(C)C[C@@H](C)[C@H](O2)[C@@H]1C`, the Activity (THP-1 [1]) is reported as over 100 µM and the EC50 (THP-1 [8]) is reported as 26.3 µM.
In the case of `CC[C@H]1OC(=O)[C@H](C)[C@@H](O[C@H]2C[C@@](C)(OC)[C@@H](O)[C@H](C)O2)[C@H](C)[C@@H](O[C@@H]2O[C@H](C)C[C@H](N(C)C)[C@H]2O)[C@](C)(O)C[C@@H](C)C(=O)[C@H](C)[C@@H](O)[C@]1(C)O` [ERYTHROMYCIN], the MIC (Staphylococcus aureus [2]) is reported as 64 µg/mL (≈ 87.2 µM), the MIC (Micrococcus luteus [3]) is reported as at most 0.5 µg/mL and the MIC (Escherichia coli) is reported as 64 µg/mL (≈ 87.2 µM). The MIC [4] was at most 0.5 µg/mL, the MIC (Micrococcus luteus [5]) was 1 µg/mL (≈ 1.36 µM) and the MIC [6] was 4 µg/mL (≈ 5.45 µM). It also gave an MIC (Serratia marcescens) of 128 µg/mL (≈ 174 µM), an MIC (Staphylococcus aureus [7]) of at most 0.5 µg/mL and an MIC (Klebsiella pneumoniae) of 32 µg/mL (≈ 43.6 µM). The MIC (Staphylococcus aureus [9]) was at most 0.5 µg/mL and the MIC (Klebsiella aerogenes) was 128 µg/mL (≈ 174 µM).
